This is an account of results in US11193932B2, “4,4-disubstituted cyclohexyl bridged heptamethine cyanine dyes and uses thereof” (VisEn Medical, Inc., priority 2013, dated 2021).

Series [1] is described as follows: Absorbance of the dyes (absorption maximum, extinction coefficient). Format: physicochemical.
The nature of series [2]: Fluorescence emission maximum of the dyes. It is filed as physicochemical.

Each structure is given as a SMILES string.

As to `CCOC(=O)C1(C(=O)O)CC(/C=C/C2=[N+](CCCS(=O)(=O)[O-])c3ccc(S(=O)(=O)O)cc3C2(C)C)=CC(=C/C=C2/N(CCCS(=O)(=O)O)c3ccc(S(=O)(=O)O)cc3C2(C)C)/C1` (stereo not drawn) [Compound 1b], the “% absorption of the dye at 278 nm with respect to its abs. at λmax, 750 nm” value in series [1] is given as 4%. Besides, the Abs in series [1] (1x PBS) is 749 nm. In addition, in series [1] (1x PBS, in M-1 cm-1 (unit assumed)), the “ε (extinction coefficient of the dye)” value is 240,000. In series [2] (1x PBS), the Em worked out at 771 nm.

In series [1] (in water), `CCOC(=O)C1(C(=O)NCCS(=O)(=O)O)CC(/C=C/C2=[N+](CCCS(=O)(=O)[O-])c3ccc(S(=O)(=O)O)cc3C2(C)C)=CC(=C/C=C2/N(CCCS(=O)(=O)O)c3ccc(S(=O)(=O)O)cc3C2(C)C)/C1` (stereo not drawn) [Compound 1c] gave an Abs. max of 749 nm.

On to `CC1(C)C(/C=C/C2=CC(=C/C=C3/N(CCCS(=O)(=O)O)c4ccc(S(=O)(=O)O)cc4C3(C)C)/CC(C(=O)O)(C(=O)NCCS(=O)(=O)O)C2)=[N+](CCCS(=O)(=O)[O-])c2ccc(S(=O)(=O)O)cc21` (stereo not drawn) [Compound 1d], for which, in series [1] (in water/1× PBS), the Abs. max is 751 nm. Moreover, the “Em. Max” value in series [2] (in water/1× PBS) is listed as 771 nm.

Consider `CC1(C)C(/C=C/C2=CC(=C/C=C3/N(CCCS(=O)(=O)O)c4ccc(S(=O)(=O)O)cc4C3(C)C)/CC(C(=O)NCCCCCC(=O)O)(C(=O)NCCS(=O)(=O)O)C2)=[N+](CCCS(=O)(=O)[O-])c2ccc(S(=O)(=O)O)cc21` (stereo not drawn) [Compound 1f], for which the Abs. max in series [1] (in water/1× PBS) is reported as 751 nm. Also, the “Em. Max” value in series [2] (in water/1× PBS) is listed as 771 nm.

As for `CCN1/C(=C/C=C2C=C(/C=C/C3=[N+](CC)c4ccc5c(S(=O)(=O)[O-])cc(S(=O)(=O)O)cc5c4C3(C)C)CC(C(=O)NCCCCCC(=O)O)(C(=O)NCCS(=O)(=O)O)C/2)C(C)(C)c2c1ccc1c(S(=O)(=O)O)cc(S(=O)(=O)O)cc21` (stereo not drawn) [Compound 4m], the Abs. max is 780 nm in series [1] (MeOH) and 775 nm in series [1] (in water). In addition, the “Em. Max” value in series [2] (water) turned out to be 795 nm.
